Laboratory results from patent US20130150346A1, “Use of FAAH Inhibitors for Treating Parkinson's Disease and Restless Legs Syndrome” (Ironwood Pharmaceutical, Inc., priority 2010, published 2013).

Tested on: FAAH
Assay: Plasma FAAH substrate levels (AEA, OEA, PEA) by LC-MS/MS in MPTP-lesioned marmosets treated with URB597
Type: in vivo, common marmosets (Callithrix jacchus)
Description: Six common marmosets (Callithrix jacchus; female; weight, 350-500 g (Harlan, Madison, Wis., USA)) were kept under conditions of controlled temperature (25±2° C.) and a 12-hour light/dark cycle (lights on 6:30 a.m.). Animals were group housed and had access to food, fresh-fruit supplements and water ad libitum and their home cage environment was enriched with primate toys, perches and auditory stimuli. Prior to start of studies, animals were acclimatized to handling, blood collection and administration of treatments (oral syringe feeding and subcutaneous injection) as well as transfer to observation cages for assessment of behavior. A parkinsonian syndrome was induced by once-daily subcutaneous administration of MPTP hydrochloride (Sigma, Canada; 2 mg/kg base concentration in 0.9% saline) for 5 consecutive days. Following this, animals were allowed to recover for 12 weeks to allow parkinsonian symptoms to develop and stabilize. […] Treatment-related complications including dyskinesia and psychosis-like behaviors were evoked by twice-daily treatment with L-DOPA p.o. (as Prolopa®, Roche Canada, Ontario, equivalent to 15 mg/kg L-DOPA and 3.5 mg/kg benserazide) for a minimum of 30 days. […] Disord. 21:839-846; Visanji et al. (2008) Mov. Disord. 23:1922-1925; Visanji et al (2009) Neurobiol Dis. 35: 184-192]. After this time, the animals were used in several studies to evaluate potential anti-parkinsonian and anti-dyskinetic agents. A minimum period of two weeks was allowed between completing any prior study and commencing this study, a period in excess of ten half-lives since administration of any previously employed experimental drug. Throughout the course of the study, on days not requiring plasma sampling or behavioral observations, animals were treated once daily with oral L-DOPA therapy, given at 10:00 a.m. to maintain stable levels of complications. Marmosets treated with MPTP as described in this example are referred to as MPTP-lesioned marmosets.
MPTP hydrochloride (Sigma, Canada) was dissolved in 0.9% NaCl sterile solution to a concentration of 0.2 mg/ml (freebase) and administered at 1 ml/kg. Maintenance L-DOPA, administered as Prolopa® capsules (Roche, Mississauga, ON, Canada) containing 50 mg L-DOPA and 12.5 mg benserazide (freebase) was dissolved in Gatorade sports beverage (The Gatorade Company, Chicago, Ill.) prior to oral administration by syringe at a volume of 10 ml/kg. On days of behavioral assessment, L-DOPA (20 mg/kg, freebase) was prepared from the methyl ester form (Sigma, Canada) in combination with benserazide hydrochloride (5 mg/kg, freebase, Sigma, Canada) dissolved in 0.9% sterile saline containing 0.1% ascorbate (Sigma, Canada) and 0.05% absolute ethanol. URB597 (Cayman Chemical, Ann Arbor, Mich.) was formulated in a vehicle containing 50% corn oil (Professional Compounding Centers of America (PCCA), Houston, Tex.) and 50% nutritional drink Ensure™ (Abbott Nutrition, Chicago, Ill.) to make the suspension palatable for marmoset oral dosing. Requisite amounts of URB597 were weighed into sterile 50 ml polypropylene tubes (for the 3, 10, 30 and 60 mg/kg doses, 12, 40, 120 and 240 mg were weighed respectively). Then, 10 ml Corn oil was added and mixed until homogenous. Next, 10 ml Ensure™ was added and the mixture mixed gently at first, vortexed and finally sonicated (Ultrasonic Dismembrator, Fisher Scientific model 100, ⅛″) on a medium setting for 30 sec to ensure homogeneity of the suspension. URB597 or vehicle was dosed orally at a volume of 5 ml/kg body weight.
The effect of oral treatment of MPTP-lesioned marmosets with either vehicle or URB597 (3, 10, 30 or 60 mg/kg) on plasma levels of specific endogenous FAAH substrates was assessed. Levels of the endocannabinoid AEA, in addition to the non-cannabinoid fatty acid amides N-palmitoyl-ethanolamide (PEA) and N-oleoyl-ethanolamide (OEA), were measured by LC-MS/MS assays (described below).

[1] = URB597 10 mg/kg p.o. (two doses), four hours after oral administration, mean±SEM, n=6
[2] = mean of the 4 doses studied (3, 10, 30, 60 mg/kg p.o.) ±SEM

SMILES: NC(=O)c1cccc(-c2cccc(OC(=O)NC3CCCCC3)c2)c1 [URB597]
- mean plasma level of AEA [1]: 5.0 ± 0.45 ng/mL
- mean plasma level of OEA [1]: 7.7 ± 0.78 ng/mL
- mean plasma level of PEA [1]: 7.0 ± 0.27 ng/mL
- FAAH inhibition suggested by fatty acid amide elevations (no dose response) (all four doses 3 mg/kg to 60 mg/kg p.o.): complete inhibition of FAAH at all dose levels studied
- mean fold change of plasma AEA compared to vehicle treatment [2]: 10.3±0.3 fold
- mean fold change of plasma OEA compared to vehicle treatment [2]: 7.8±0.2 fold
- mean fold change of plasma PEA compared to vehicle treatment [2]: 1.8±0.1 fold
